In data set [1] the target is T1, CYP2C8 (Homo sapiens, UniProt P10632).
T1 sequence (P10632 1-490): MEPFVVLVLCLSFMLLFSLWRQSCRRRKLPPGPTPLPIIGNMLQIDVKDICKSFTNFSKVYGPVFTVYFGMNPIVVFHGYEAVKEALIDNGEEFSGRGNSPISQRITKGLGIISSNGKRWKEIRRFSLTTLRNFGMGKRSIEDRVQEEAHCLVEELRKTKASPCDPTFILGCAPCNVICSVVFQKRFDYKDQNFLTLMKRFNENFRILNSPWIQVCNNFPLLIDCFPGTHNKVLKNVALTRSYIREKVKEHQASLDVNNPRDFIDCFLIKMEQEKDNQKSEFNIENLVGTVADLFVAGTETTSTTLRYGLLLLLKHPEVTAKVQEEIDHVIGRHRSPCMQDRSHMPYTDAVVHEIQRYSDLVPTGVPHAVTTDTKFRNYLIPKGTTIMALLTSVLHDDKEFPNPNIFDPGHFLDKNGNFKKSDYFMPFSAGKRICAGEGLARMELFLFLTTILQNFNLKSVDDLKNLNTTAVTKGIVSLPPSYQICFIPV
Kind of data set: Ki determination in pooled human liver microsomes, amodiaquine N-deethylase (Example 5). In kind it is in vitro ADME. How it is done: (§1) The objective of this study was to evaluate in vitro the Ki of tucatinib of the following human hepatic cytochrome P450 (CYP) enzymes (CYP2C8, CYP2C9, and CYP3A4) and UGT1A1. […] Pooled human liver microsomes (HLM) from 150 individuals (79 males and 71 females) were obtained from BioreclamationIVT (Baltimore, Md.) and stored at approximately −70° C. The microsomes were characterized by the supplier for total protein and selected cytochrome P450 activities. […] The final organic solvent contribution was ≤1%. Incubations were terminated by the addition of chilled acetonitrile containing a stable isotope-labeled internal standard. […] Samples were analyzed by liquid chromatography with tandem mass spectrometry (LC-MS/MS). Analyte concentrations were quantified by LC-MS/MS and interpolated from standard curves of authentic analyte. […] Activities were calculated based on analyte concentration, incubation time, and protein concentration. Enzymatic activity (pmol/minute/mg protein) was expressed as the formation of the analyte per final protein concentration per incubation time. Activity remaining was expressed as the enzymatic activity at each concentration point of the test article normalized by the solvent control mean activity. […]
On the technique in general: Liver microsomes are a subcellular fraction often used to study metabolism.

Data set [2] has as its system CYP3A4. Description: In vitro enzyme activity / mRNA induction in human hepatocytes. The class given is in vitro ADME.
Data set [3] concerns the target T2, OAT2 (Homo sapiens, UniProt Q9Y694).
T2 construct: expressed in transfected cells; host or cells: MDCK-II
T2 sequence (Q9Y694 1-548): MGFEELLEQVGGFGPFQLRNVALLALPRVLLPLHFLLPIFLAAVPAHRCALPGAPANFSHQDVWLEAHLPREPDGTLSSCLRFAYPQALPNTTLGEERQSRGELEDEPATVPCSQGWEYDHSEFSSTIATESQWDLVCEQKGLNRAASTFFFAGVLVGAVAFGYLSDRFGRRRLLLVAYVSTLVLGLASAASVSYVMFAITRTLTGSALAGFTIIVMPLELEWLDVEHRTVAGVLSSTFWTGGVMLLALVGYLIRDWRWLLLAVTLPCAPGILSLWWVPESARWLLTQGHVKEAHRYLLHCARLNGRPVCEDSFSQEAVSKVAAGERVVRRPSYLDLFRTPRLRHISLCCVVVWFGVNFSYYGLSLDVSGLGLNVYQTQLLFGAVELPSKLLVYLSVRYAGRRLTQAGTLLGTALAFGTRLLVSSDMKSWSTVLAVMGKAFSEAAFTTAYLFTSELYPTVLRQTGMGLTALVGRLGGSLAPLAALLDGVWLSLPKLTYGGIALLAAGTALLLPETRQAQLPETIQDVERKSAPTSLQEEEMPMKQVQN
Kind of data set: Inhibition of OAT2 mediated transport of creatinine in transfected MDCK-II cells (Example 3). In kind it is in vitro ADME. The conditions noted are these: MDCK-II, read-out: Maximum inhibition of OAT2 mediated transport of creatinine. How it is done: Substrate dependent inhibition is common among transporters including MATE1 and MATE2-K. In this study, creatinine was used as the probe substrate to assess the inhibitory potency of Tucatinib and ONT-993. OAT2, OCT2, OCT3, MATE1, and MATE2-K are the renal transporters identified to transport creatinine. Tucatinib and its metabolite ONT-993 were tested as potential inhibitors of OAT2, OCT2, MATE1, and MATE2-K mediated transport using creatinine as a probe substrate.
For this study, MDCK-II were maintained in DMEM with low glucose and 10% FBS. Cells were seeded at 60K±10K cells/well on 96-well, transwell membrane plates approximately 24 hours before transfection. Transport assays were carried out approximately 48 hours after transfection. Cells were transfected and treated to express the transporter of interest or treated with a control vector. The transport of creatinine was determined by radiometric detection.
Net transporter mediated uptake of the substrate by each transporter was calculated as follows: Net Transporter Mediated Substrate Uptake (pmol/min/cm^2)=(Cellular accumulation in the presence of the transporter)−(Mean cellular accumulation in the absence of the transporter.
Percent inhibition was calculated as follows: Percent inhibition=100−(100*(transporter mediated uptake)with inhibition/(transporter mediated uptake)without inhibition) […]

Data set [4] has as its target CYP2C9 (Homo sapiens, UniProt P11712). Kind of data set: Ki determination in pooled human liver microsomes, diclofenac 4'-hydroxylase (Example 5). In kind it is in vitro ADME. Also on record: endogenous in cells; host or cells: healthy human subjects, in vivo. The procedure: as §1
Data set [5] deals with T1, CYP2C8. Kind of data set: Example 2 Part C: effect of strong CYP2C8 inhibitor gemfibrozil on PK of tucatinib. The conditions noted are these: tucatinib 300 mg single dose in combination with gemfibrozil vs tucatinib alone. In kind it is in vivo. Also on record: endogenous in cells; host or cells: healthy human subjects, in vivo. The procedure: From Day 3 to Day 8, each subject received single oral doses of 600 mg of gemfibrozil (BID), twice daily (BID). On Day 7, each subject received a single oral dose of 300 mg of tucatinib. […] Other noncompartmental PK parameters may be reported. Additionally, blood samples were collected for determination of trough levels of gemfibrozil prior to morning dosing on the days indicated in FIG. 7.

The test system of data set [6] is MATE1/2K. Description: Phase 1 drug-drug interaction study: effect of tucatinib on metformin pharmacokinetics (Example 1). The conditions noted are these: healthy subjects, tucatinib 300 mg bid.

We go through one compound from US20220193076A1, “METHODS OF TREATING BREAST CANCER WITH TUCATINIB” (Seagen Inc., priority 2019, published 2022).

CYP2C9, sequence (P11712 whole entry): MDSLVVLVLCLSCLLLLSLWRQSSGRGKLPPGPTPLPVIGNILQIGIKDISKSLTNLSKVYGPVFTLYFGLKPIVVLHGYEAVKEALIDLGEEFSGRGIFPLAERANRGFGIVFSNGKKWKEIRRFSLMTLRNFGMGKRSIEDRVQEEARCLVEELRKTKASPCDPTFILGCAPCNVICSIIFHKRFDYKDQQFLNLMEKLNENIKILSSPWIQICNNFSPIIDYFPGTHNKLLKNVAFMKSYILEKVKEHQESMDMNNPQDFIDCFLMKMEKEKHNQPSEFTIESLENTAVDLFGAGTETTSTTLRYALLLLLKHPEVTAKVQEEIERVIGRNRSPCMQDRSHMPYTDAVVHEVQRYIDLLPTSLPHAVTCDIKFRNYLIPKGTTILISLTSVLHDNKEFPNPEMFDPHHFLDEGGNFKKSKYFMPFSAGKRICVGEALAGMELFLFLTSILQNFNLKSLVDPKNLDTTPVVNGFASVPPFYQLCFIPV

On to `Cc1cc(Nc2ncnc3ccc(NC4=NC(C)(C)CO4)cc23)ccc1Oc1ccn2ncnc2c1` [tucatinib], for which the “Inhibition mechanism, CYP2C8” value in data set [1] was “competitive inhibition”. Further, the Ki (in general, the equilibrium dissociation constant of an inhibitor or competing ligand from its target) in data set [1] (marker substrate amodiaquine) was determined as 0.17 µM. Besides, the “Induction of in vitro enzyme activity or messenger ribonucleic acid, CYP3A4” value in data set [2] is on record as “did not induce”. For the same compound, the inhibition (in general, the percentage by which the read-out fell short of the control) at 10 µM in data set [3] was 14.7%. Moreover, the “Inhibition mechanism, CYP2C9” value in data set [4] was “competitive inhibition”. In data set [4] (marker substrate diclofenac), this compound displayed a Ki of 4.57 µM. Moreover, in data set [5], the “Geometric LS mean ratio (90% CI), AUC0-∞” value is 3.04 (2.66, 3.46); the “Geometric LS mean ratio (90% CI), AUClast” value was 2.99 (2.62, 3.41); the “Geometric LS mean ratio (90% CI), Cmax” value is 1.62 (1.47, 1.79). The “Inhibition of the renal OCT2/MATE1/MATE2-K pathway in vivo” value in data set [6] is “weak inhibitor”.
